From PubChem BioAssay (NCI)
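A five-concentration, 48-hour dose response in 96-well plates underlies each endpoint, interpolated linearly between surrounding concentrations. Abbreviation: GI50, concentration required for 50% inhibition of growth. TGI is the concentration that stops growth completely.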

Tests used:
Experiment in all cases: growth of human tumour cells (NCI), 48 h
[1] = tested on: KM12 colon
[2] = tested on: LOX IMVI melanoma
[3] = tested on: OVCAR-4 ovarian
[4] = tested on: COLO 205 colon
[5] = tested on: UACC-62 melanoma
[6] = tested on: DMS 114 small cell lung
[7] = tested on: KM20L2 colon
[8] = tested on: T-47D breast
[9] = tested on: BT-549 breast
[10] = tested on: SR leukemia
[11] = tested on: HOP-18 NSCLC

In the case of `Cc1ccccc1C(CCCO)C(=O)O` (centres undefined), the TGI [1] was > 100 µM, the TGI [2] was > 100 µM and the TGI [3] was > 100 µM. For the same compound, the TGI [4] was > 100 µM, the TGI [5] was > 100 µM and the TGI [6] was > 100 µM.
`COc1ccc2nc(NC(=O)C(=O)CC(=O)c3ccc([N+](=O)[O-])cc3)sc2c1` was tested, and the TGI [1] was > 100 µM, the TGI [7] was > 100 µM and the TGI [3] was > 100 µM. For the same compound, the TGI [4] was > 100 µM, the TGI [5] was > 100 µM and the TGI [6] was > 100 µM.
`C#Cc1ccc(-n2c(/C=C/c3ccc(O)cc3)nc3ncccc3c2=O)cc1` was tested, and the GI50 [1] was 3.81 µM, the TGI [1] was 60.3 µM and the GI50 [2] was 5.35 µM. The TGI [2] was > 100 µM, the GI50 [8] was 4.63 µM and the TGI [8] was > 100 µM. It also gave a GI50 [9] of 7.51 µM, a TGI [9] of 87.4 µM and a GI50 [10] of 3.54 µM. For the same compound, the TGI [10] was > 100 µM, the GI50 [3] was 22.8 µM and the TGI [3] was > 100 µM. The GI50 [4] was > 100 µM, the TGI [4] was > 100 µM and the GI50 [5] was 4.01 µM. For the same compound, the TGI [5] was > 100 µM.
With `Nc1nc(=S)c2ncn(C3OC(COP(=O)(O)O)C(O)C3O)c2[nH]1` (centres undefined) the GI50 [1] was 3.02 µM, the TGI [1] was > 100 µM and the GI50 [2] was 0.322 µM. For the same compound, the TGI [2] was 14.2 µM, the GI50 [8] was 0.541 µM and the TGI [8] was > 100 µM. For the same compound, the GI50 [9] was 2.38 µM, the TGI [9] was > 100 µM and the GI50 [10] was 0.268 µM. The TGI [10] was > 100 µM, the GI50 [3] was 2.19 µM and the TGI [3] was > 100 µM. For the same compound, the GI50 [4] was 2.66 µM, the TGI [4] was 9.04 µM and the GI50 [5] was 0.539 µM. It also gave a TGI [5] of 6.14 µM.
`CC(=O)Oc1ccc(C2=Cc3ccc(OC(C)=O)cc3OC2C)cc1` (centres undefined) showed a GI50 [1] of 5.97 µM, a TGI [1] of 23.2 µM and a GI50 [2] of 4.09 µM. It also gave a TGI [2] of 26.2 µM, a GI50 [8] of 12.7 µM and a TGI [8] of 60.5 µM. For the same compound, the GI50 [9] was 4.66 µM, the TGI [9] was 69.9 µM and the GI50 [10] was 1.7 µM. The TGI [10] was 9.95 µM, the GI50 [3] was 14.2 µM and the TGI [3] was 81.4 µM. The GI50 [4] was 27.9 µM, the TGI [4] was > 100 µM and the GI50 [5] was 4.61 µM. It also gave a TGI [5] of 25.1 µM.
For `NC1=NC(Cn2nc(-c3ccccc3)c3ccccc3c2=O)=NNC(=O)N1`, the TGI [1] was > 100 µM, the TGI [11] was > 100 µM and the TGI [10] was > 100 µM. The TGI [3] was > 100 µM, the TGI [4] was > 100 µM and the TGI [5] was > 100 µM.
`O=[N+]([O-])c1ccc(-c2ccc(C3=Nn4c(CNc5ccccc5Cl)nnc4SC3)o2)cc1` was tested, and the TGI [1] was > 100 µM, the TGI [2] was > 100 µM and the TGI [7] was > 100 µM. The TGI [10] was > 100 µM, the TGI [4] was > 100 µM and the TGI [5] was > 100 µM.
With `CC(=O)NC1C(O[C@H]2C[C@H]3[C@@H]4CC=C5C[C@@H](O)CC[C@]5(C)[C@H]4CC[C@]3(C)[C@H]2[C@H](C)C(=O)CCC(C)C)OCC(O)C1O` (some centres undefined) the GI50 [1] was 6.27 µM, the TGI [1] was > 42.5 µM and the GI50 [2] was 1.45 µM. The TGI [2] was 5.79 µM, the GI50 [8] was 2.28 µM and the TGI [8] was 30.9 µM. The GI50 [9] was 0.776 µM, the TGI [9] was 6.96 µM and the GI50 [10] was 1.56 µM. For the same compound, the TGI [10] was 22.8 µM, the GI50 [3] was 5.31 µM and the TGI [3] was 41 µM. For the same compound, the GI50 [4] was 2.13 µM, the TGI [4] was 8.75 µM and the GI50 [5] was 0.913 µM. It also gave a TGI [5] of 2.21 µM.
`COc1ccc(-c2[nH]c3ccc(OC)cc3c2C=C(C#N)C#N)cc1` was tested, and the GI50 [1] was 0.52 µM, the TGI [1] was > 100 µM and the GI50 [2] was > 100 µM. For the same compound, the TGI [2] was > 100 µM, the GI50 [8] was 2.57 µM and the TGI [8] was > 100 µM. For the same compound, the GI50 [9] was > 100 µM, the TGI [9] was > 100 µM and the GI50 [10] was 0.0188 µM. The TGI [10] was 0.116 µM, the GI50 [3] was > 100 µM and the TGI [3] was > 100 µM. The GI50 [4] was 0.288 µM, the TGI [4] was 1.02 µM and the GI50 [5] was 0.355 µM. For the same compound, the TGI [5] was > 100 µM.
For `CCCCCCCCCCCCCCNC(=O)Nc1ccc(Cl)c(Cl)c1`, the GI50 [1] was 3 µM, the TGI [1] was 8.44 µM and the GI50 [2] was 3.23 µM. For the same compound, the TGI [2] was > 100 µM, the GI50 [8] was 3.17 µM and the TGI [8] was > 30 µM. For the same compound, the GI50 [9] was 1.87 µM, the TGI [9] was 6.16 µM and the TGI [10] was > 23.6 µM. The GI50 [3] was 2.79 µM, the TGI [3] was > 100 µM and the GI50 [4] was 1.81 µM. The TGI [4] was 3.48 µM, the GI50 [5] was 3.69 µM and the TGI [5] was > 100 µM.
`Fc1ccc(NC(c2ccc(F)cc2)C2CCN(CCCCc3ccccc3)CC2)cc1` (centres undefined) gave a GI50 [1] of 1.85 µM, a TGI [1] of 3.67 µM and a GI50 [2] of 1.55 µM. The TGI [2] was 2.89 µM, the GI50 [8] was 1.65 µM and the TGI [8] was 3.62 µM. The GI50 [9] was 1.55 µM, the TGI [9] was 2.97 µM and the GI50 [10] was 1.57 µM. It also gave a TGI [10] of 3.89 µM, a GI50 [3] of 1.41 µM and a TGI [3] of 3.22 µM. For the same compound, the GI50 [4] was 1.6 µM, the TGI [4] was 3.2 µM and the GI50 [5] was 1.83 µM. For the same compound, the TGI [5] was 3.46 µM.
With `CCO/C=C1\SC(=S)N(c2ccc(OCC)cc2)C1=O` the TGI [1] was > 100 µM, the TGI [2] was > 100 µM and the TGI [8] was > 100 µM. The TGI [9] was > 100 µM, the TGI [10] was > 100 µM and the TGI [3] was > 100 µM. The TGI [4] was > 100 µM and the TGI [5] was > 100 µM.
In the case of `CN1CCOC(C(NC(=O)c2ccccc2)c2ccccc2)C1=O` (centres undefined), the TGI [1] was > 100 µM, the TGI [2] was > 100 µM and the TGI [11] was > 100 µM. The TGI [7] was > 100 µM, the TGI [10] was > 100 µM and the TGI [3] was > 100 µM. For the same compound, the TGI [4] was > 100 µM and the TGI [5] was > 100 µM.
For `[O]=[V]([OH])([OH])[OH]`, the GI50 [1] was > 100 µM, the TGI [1] was > 100 µM and the GI50 [2] was > 100 µM. The TGI [2] was > 100 µM, the GI50 [8] was > 100 µM and the TGI [8] was > 100 µM. The GI50 [9] was > 100 µM, the TGI [9] was > 100 µM and the GI50 [10] was 36.3 µM. For the same compound, the TGI [10] was > 100 µM, the GI50 [3] was 54.2 µM and the TGI [3] was > 100 µM. The GI50 [4] was > 100 µM, the TGI [4] was > 100 µM and the GI50 [5] was > 100 µM. The TGI [5] was > 100 µM.
`CCN(CC)c1ccc2nc3ccc(=[N+](CC)CC)cc-3oc2c1` gave a GI50 [1] of 0.122 µM, a TGI [1] of 8.13 µM and a GI50 [2] of 0.11 µM. It also gave a TGI [2] of 1.59 µM, a GI50 [8] of 0.105 µM and a TGI [8] of 1.18 µM. For the same compound, the GI50 [9] was 2.32 µM, the TGI [9] was 21 µM and the GI50 [10] was 0.424 µM. The TGI [10] was > 44.3 µM, the GI50 [3] was 0.0463 µM and the TGI [3] was 1.28 µM. The GI50 [4] was 0.0222 µM, the TGI [4] was 0.86 µM and the GI50 [5] was 0.756 µM. It also gave a TGI [5] of 4.33 µM.
For `Cc1noc(NC(=O)Nc2ccccc2F)c1C#N`, the TGI [1] was > 100 µM, the TGI [2] was > 100 µM and the TGI [8] was > 77.4 µM. For the same compound, the TGI [9] was > 100 µM, the TGI [10] was > 100 µM and the TGI [3] was > 100 µM. The TGI [4] was > 100 µM and the TGI [5] was > 45.4 µM.
In the case of `C=CCN(CC=C)C(=O)c1cc(C)nc2c1c(=O)n(-c1ccccc1)c(=O)n2CCCN1CCN(c2ccccc2OC)CC1`, the GI50 [1] was > 50 µM, the TGI [1] was > 50 µM and the GI50 [2] was > 50 µM. For the same compound, the TGI [2] was > 50 µM, the GI50 [8] was > 50 µM and the TGI [8] was > 50 µM. For the same compound, the GI50 [9] was > 50 µM, the TGI [9] was > 50 µM and the GI50 [10] was > 50 µM. For the same compound, the TGI [10] was > 50 µM, the GI50 [3] was > 50 µM and the TGI [3] was > 50 µM. The GI50 [4] was > 50 µM, the TGI [4] was > 50 µM and the GI50 [5] was > 50 µM. The TGI [5] was > 50 µM.
With `CC(=O)[CH-]C(=O)c1ccccc1.[C-]#[O+].[C-]#[O+].[Ir]` the GI50 [1] was > 10 µM, the TGI [1] was > 10 µM and the GI50 [2] was > 100 µM. The TGI [2] was > 100 µM, the GI50 [11] was > 100 µM and the TGI [11] was > 100 µM. The GI50 [3] was > 100 µM, the TGI [3] was > 100 µM and the GI50 [4] was > 100 µM. The TGI [4] was > 100 µM, the GI50 [5] was > 100 µM and the TGI [5] was > 100 µM.
